{"source": "the supplement of paper PMC10307832", "assay_in_all_cases": "relative viability (nuclei count vs DMSO), 5 days (fraction); higher = more cells survive", "key": {"[1]": {"compound": "C=CC(=O)N1CCC[C@@H](n2nc(-c3ccc(Oc4ccccc4)cc3)c3c(N)ncnc32)C1 [Ibrutinib] + COc1cccc2cc(-c3nc([C@H]4CC[C@H](C(=O)O)CC4)n4ncnc(N)c34)[nH]c12 [OSI-027] (partner 0.5 µM)", "how_it_was_run": "(§1)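 Relative viability equals treated-well nuclei counts divided by vehicle-well nuclei counts. Counts came from 4× images of lung cancer cell lines grown in 1536-well plates for 5 days after pin-tool dosing on the day after seeding. Dosing used one drug alone or a fixed anchor-drug dose plus five library-drug doses (not always all listed) in √10 steps, and values are medians of duplicate plates.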"}, "[2]": {"compound": "C=CC(=O)N1CCC[C@@H](n2nc(-c3ccc(Oc4ccccc4)cc3)c3c(N)ncnc32)C1 [Ibrutinib] + CCNC(=O)c1noc(-c2cc(C(C)C)c(O)cc2O)c1-c1ccc(CN2CCOCC2)cc1 [Luminespib] (partner 0.01 µM)", "how_it_was_run": "as §1"}, "[3]": {"compound": "C=CC(=O)Nc1cc(-n2c(=O)ccc3cnc4ccc(-c5ccc(NS(C)(=O)=O)cc5)cc4c32)ccc1C [BMX-IN-1] + N=C(N)NC(=N)NCCc1ccccc1 [Phenformin] (partner 250 µM)", "how_it_was_run": "as §1"}, "[4]": {"compound": "C=CCc1cccc(/C=N/NC(=O)CN2CCN(Cc3ccccc3)CC2)c1O [PAC-1] + C[C@]1(O)C[C@@H](c2nc(-c3ccc4ccc(-c5ccccc5)nc4c3)c3c(N)nccn32)C1 [Linsitinib] (partner 1 µM)", "how_it_was_run": "as §1"}}}
{"cell line": "SK-MES-1", "values": [{"measurement": "relative viability", "setting": "[1]; first compound 0.005 µM", "value": 0.584}, {"measurement": "relative viability", "setting": "[1]; first compound 0.01581 µM", "value": 0.568}, {"measurement": "relative viability", "setting": "[1]; first compound 0.05 µM", "value": 0.584}, {"measurement": "relative viability", "setting": "[1]; first compound 0.1581 µM", "value": 0.687}, {"measurement": "relative viability", "setting": "[1]; first compound 0.5 µM", "value": 0.357}, {"measurement": "relative viability", "setting": "[2]; first compound 0.005 µM", "value": 0.619}, {"measurement": "relative viability", "setting": "[2]; first compound 0.01581 µM", "value": 0.66}, {"measurement": "relative viability", "setting": "[2]; first compound 0.05 µM", "value": 0.77}, {"measurement": "relative viability", "setting": "[2]; first compound 0.1581 µM", "value": 0.842}, {"measurement": "relative viability", "setting": "[2]; first compound 0.5 µM", "value": 0.443}, {"measurement": "relative viability", "setting": "[3]; first compound 0.02 µM", "value": 0.711}, {"measurement": "relative viability", "setting": "[3]; first compound 0.2 µM", "value": 0.792}, {"measurement": "relative viability", "setting": "[3]; first compound 0.6325 µM", "value": 0.695}, {"measurement": "relative viability", "setting": "[3]; first compound 2 µM", "value": 0.724}, {"measurement": "relative viability", "setting": "[4]; first compound 0.02 µM", "value": 1.04}, {"measurement": "relative viability", "setting": "[4]; first compound 0.06325 µM", "value": 1.03}, {"measurement": "relative viability", "setting": "[4]; first compound 0.2 µM", "value": 1.04}, {"measurement": "relative viability", "setting": "[4]; first compound 2 µM", "value": 1.03}]}
